# Measured values: patent US20090087420A1, “STABLE SOLUTION OF REDUCED COENZYME Q” (Kaneka Corporation, priority 2001, published 2009)
# Assay: Oxidation stability of reduced coenzyme Q10 solubilized with a surfactant during air storage
# Assay type: physicochemical
# Conditions: for period of stable storage: 0.05% by weight reduced coenzyme Q10, air storage at 23° C. (FIG. 4)
# Method: A solution of reduced coenzyme Q10 using a surfactant was prepared by the method described below, and the oxidation stability under storage was evaluated. As the surfactant, Polysolvate 80 (Tween 80) or polyoxyethylene hardened castor oil (HCO 60) was used, and an aqueous solution of 1% by weight or 0.1% by weight of the surfactant was prepared. Then, the reduced coenzyme Q10 was added to the aqueous solution so that the final concentration of the solution was 0.05% by weight. […] In FIG. 4, each value is an average with n=2. […] The results of this test indicate that with a surfactant concentration of 0.1% by weight, the reduced coenzyme Q10 can be stably stored at 23° C. for about 1 month. […] Therefore, when preparing a solution or emulsion with a surfactant, the concentration of the surfactant used is decreased to prepare a solution which can be stored for a longer period of time. A solution or emulsion with 1% by weight or more of a surfactant can be used under conditions in which the solution or emulsion is prepared before use, or the solution or emulsion is stored for a short period or stored in an airtight condition such as a completely anaerobic condition.
smiles,measurement,setting,value
COc1c(O)c(C)c(C/C=C(\C)CC/C=C(\C)CC/C=C(\C)CC/C=C(\C)CC/C=C(\C)CC/C=C(\C)CC/C=C(\C)CC/C=C(\C)CC/C=C(\C)CCC=C(C)C)c(O)c1OC [reduced coenzyme Q10],period of stable storage,surfactant (Tween 80 or HCO 60) concentration 0.1% by weight,about 1 month
same,period of stable storage,surfactant (Tween 80 or HCO 60) concentration 1% by weight,1 week
same,oxidation after the stable period (in words),"surfactant concentration 1% by weight, after 1 week of air storage at 23° C.",rapidly oxidized
